PMC8636726 (Synthetic and Systems Biotechnology, 2021)

Target: T1, EmbR protein (Mycobacterium tuberculosis, UniProt P9WGJ9)
T1 sequence (P9WGJ9 1-388): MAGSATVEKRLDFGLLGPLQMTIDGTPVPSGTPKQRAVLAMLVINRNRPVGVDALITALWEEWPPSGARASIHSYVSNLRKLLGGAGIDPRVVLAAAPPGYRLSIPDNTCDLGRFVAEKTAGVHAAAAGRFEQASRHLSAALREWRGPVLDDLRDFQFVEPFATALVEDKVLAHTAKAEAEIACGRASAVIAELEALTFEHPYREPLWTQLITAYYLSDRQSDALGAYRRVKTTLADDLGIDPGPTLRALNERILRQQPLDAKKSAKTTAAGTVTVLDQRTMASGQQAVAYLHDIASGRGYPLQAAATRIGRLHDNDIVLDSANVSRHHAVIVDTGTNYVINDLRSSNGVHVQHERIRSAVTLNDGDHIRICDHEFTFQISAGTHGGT
Type: binding
Conditions: BLI, clinical TB drugs tested as controls under the same conditions

SMILES | binding to EmbR
CC[C@@H](CO)NCCN[C@@H](CC)CO [EMB, Ethambutol] | no significant binding
NNC(=O)c1ccncc1 [INH, isoniazid] | no significant binding
CO[C@H]1/C=C/O[C@@]2(C)Oc3c(C)c(O)c4c(O)c(c(/C=N/N5CCN(C)CC5)c(O)c4c3C2=O)NC(=O)/C(C)=C\C=C\[C@H](C)[C@H](O)[C@@H](C)[C@@H](O)[C@@H](C)[C@H](OC(C)=O)[C@@H]1C [RIF, rifampicin] | no significant binding
